Results taken from US9657046B2, “Methods for the treatment and prevention of inflammatory diseases” (Children's Medical Center Corporation, priority 2010, dated 2017).

Assays:
[1] = test system: OVA-sensitized BALB/c mice; assay: Adoptive transfer of NKT cells from glycolipid-treated mice into OVA-sensitized BALB/c recipients (AHR, BAL); format: in vivo, mouse; settings: OVA-sensitized WT recipients; for AHR in recipients of NKT cells from glycolipid-treated donors: donors treated i.p. at 2 wk (α-C-GalCer 5 μg, PI57 50 μg, or α-GalCer), NKT cells harvested 6 wks later
BALB/c mice = assay: OVA-induced AHR in adult mice treated with glycolipid at 2 weeks of age; format: in vivo, mouse; settings: 2 wk old mice treated i.p. (α-C-GalCer 5 μg, α-GalCer 2 μg, PI57 50 or 100 μg, PBS30 50 μg); AHR induced 6 wks (42 days) later
Procedure: In FIGS. 6A-6B, two-week-old BALB/c mice (n=6-8/group) (6A) or Tbet^−/− mice (6B) (n=4-6 per group) received 5 μg […] (cGal), 2 μg α-GalCer, or vehicle. After OVA sensitization and challenge, AHR was measured on day 44. In FIG. 6C, donor mice were treated with α-C-GalCer (5 μg) or vehicle i.p. NKT cells served as donors, as in FIG. 4A (n=4 per group). Lung resistance (left) and cell counts in BAL (right) were assessed. […] In FIG. 6E, mice received PI57 (50 μg), α-GalCer (2 μg), or vehicle i.p., and lungs were examined 1 or 14 days later for CD4 and CD8 expression. In FIG. 6F, absolute numbers of CD4^+ NKT and DN NKT subsets from 6E were assessed. In FIG. 6G, BALB/c mice (n=5-8/group) received PI57 or vehicle i.p. Lung resistance (left) and BAL cells (right) were assessed. In FIG. 6H, BALB/c mice treated with PI57 (50 μg), PBS30 (Sphingomonas glycolipid) (50 μg), or vehicle i.p. were assessed for AHR as in 6G. In FIG. 6I, donor mice were treated with PI57 (50 μg) or vehicle i.p. NKT cells served as donors as in FIG. 4A. Lung resistance (left) and BAL cells (right) were assessed (n=4 per group). […] Data represent 2-3 independent experiments. *P<0.05, #P<0.05, ***P<0.001 versus vehicle-OVA (6C, 6G, and 6I), DN NKT saline (6F), and CD4^+ NKT saline (6F).
Induction of AHR and measurement of airway responsiveness in the OVA model.
To induce AHR, BALB/c mice were sensitized with 100 μg of OVA (Sigma-Aldrich) in alum administered i.p (on day 0). After sensitization, mice were exposed to intranasal antigen (50 μg OVA/day) or normal saline for 1 day (day 7; single dose challenge protocol), or for 3 consecutive days (days 7, 8, 9). AHR was assessed on the day after last OVA-challenge. Control mice received i.p. injection of PBS and intranasal administrations of normal saline.

NKT cells = settings: cited from earlier work
pulmonary NKT cells = assay: Lung NKT cell subsets (CD4+, DN) by FACS after i.p. glycolipid in 2 week-old mice; format: in vivo, mouse; settings: i.p. PI57 50 μg or α-GalCer 2 μg, lung 2 wks later
Procedure: In FIGS. 6A-6B, two-week-old BALB/c mice (n=6-8/group) (6A) or Tbet^−/− mice (6B) (n=4-6 per group) received 5 μg […] (cGal), 2 μg α-GalCer, or vehicle. After OVA sensitization and challenge, AHR was measured on day 44. In FIG. 6C, donor mice were treated with α-C-GalCer (5 μg) or vehicle i.p. NKT cells served as donors, as in FIG. 4A (n=4 per group). Lung resistance (left) and cell counts in BAL (right) were assessed. […] In FIG. 6E, mice received PI57 (50 μg), α-GalCer (2 μg), or vehicle i.p., and lungs were examined 1 or 14 days later for CD4 and CD8 expression. In FIG. 6F, absolute numbers of CD4^+ NKT and DN NKT subsets from 6E were assessed. In FIG. 6G, BALB/c mice (n=5-8/group) received PI57 or vehicle i.p. Lung resistance (left) and BAL cells (right) were assessed. In FIG. 6H, BALB/c mice treated with PI57 (50 μg), PBS30 (Sphingomonas glycolipid) (50 μg), or vehicle i.p. were assessed for AHR as in 6G. In FIG. 6I, donor mice were treated with PI57 (50 μg) or vehicle i.p. NKT cells served as donors as in FIG. 4A. Lung resistance (left) and BAL cells (right) were assessed (n=4 per group). […]
Cells were preincubated with anti-Fey blocking mAb (2.4G2) and washed before staining. […] Cells were analyzed on a BDCanto flow cytometer (BD Biosciences) using FlowJo 8.3.3 software (Tree Star, Inc.).

Structure (SMILES)	airway inflammation (BAL cells, lung sections) in recipients of NKT cells from glycolipid-treated donors ([1]; donors treated i.p. at 2 wk (α-C-GalCer 5 μg, PI57 50 μg))	AHR in recipients of NKT cells from glycolipid-treated donors [1]	protection against development of OVA-induced AHR (lung resistance) (BALB/c mice)	cytokine synthesis induced (IFN-γ, IL-4) (NKT cells)	number of NKT cells (CD4+ and DN subsets) in the lung (pulmonary NKT cells)
CCCCCCCCCCCCCCCCCCCCCCCCCC(=O)N[C@@H](CC[C@H]1OC(CO)[C@H](O)C(O)C1O)[C@H](O)[C@H](O)CCCCCCCCCCCCCC (stereo partly drawn) [α-C-GalCer, α-C-Galactosylceramide]	protected recipients against the development of AHR and airway inflammation	protected recipients against the development of AHR	protected the mice as adults (42 days later) from the development of OVA-induced AHR	preferentially induces IFN-γ but not IL-4 synthesis	–
CCCCCCCCCCCCCCCCCCCCCCCCCC(=O)N[C@@H](CO[C@H]1O[C@H](CO)[C@H](O)[C@H](O)[C@H]1O)[C@H](O)[C@H](O)CCCCCCCCCCCCCC [α-GalCer, α-Galactosylceramide]	–	reduced AHR slightly, but this was not statistically significant	did not prevent OVA induced AHR	induces production of both IFN-γ and IL-4	increased both CD4^+ and DN NKT cells in the lungs
